The results in this text go back to patent publication US8148531B2 (Chroma Therapeutics Ltd., priority 2005, dated 2012).

Experiment [1] concerns HUT cell line. The experiment can be described thus: Cell inhibition assay (SRB cell viability), HUT. In kind it is cell-based. Particulars: IC50 range class, 72 h, read-out: Inhibitor Activity vs HUT cell line. The method in brief:
(§1)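 Log-phase cells seeded at 1000 cells/well, grown 24 h, then exposed to compounds (20 uM final) for 72 h. Viability read by sulphorhodamine B staining as % inhibition versus DMSO; IC50 from eight-point sigmoidal variable-slope fit.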

In experiment [2] the target is Aurora-B (Homo sapiens, UniProt Q96GD4). The experiment can be described thus: Aurora-B enzyme assay (identical protocol as Aurora-A). The note with it: IC50 range class; read-out: Inhibitor Activity vs Aurora-B. It is filed as biochemical. In outline: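 Aurora-B was assayed in the same way as Aurora-A: kinase and γ-33P-ATP were incubated for 1 h at 37 °C in myelin basic protein-coated scintillation plates. After washing, bound radioactivity was counted. IC50 values came from a variable-slope sigmoidal fit of % activity against log compound concentration.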
Sequence of Aurora-B (Q96GD4 whole entry): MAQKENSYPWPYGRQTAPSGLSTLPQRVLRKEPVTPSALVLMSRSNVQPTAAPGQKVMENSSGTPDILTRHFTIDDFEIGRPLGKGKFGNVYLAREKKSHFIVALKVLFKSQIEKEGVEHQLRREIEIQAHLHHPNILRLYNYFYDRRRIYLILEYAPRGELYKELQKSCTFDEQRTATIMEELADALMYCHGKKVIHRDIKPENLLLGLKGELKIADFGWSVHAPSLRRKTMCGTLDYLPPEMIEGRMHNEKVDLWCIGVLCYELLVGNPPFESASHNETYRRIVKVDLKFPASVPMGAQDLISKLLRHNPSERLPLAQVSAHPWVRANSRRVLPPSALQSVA

Experiment [3] relates to U937 cell line. Nature of the experiment: Cell inhibition assay (SRB cell viability), U937. It is filed as cell-based. Particulars: Homo sapiens, U-937, IC50 range class, 72 h, read-out: Inhibitor Activity vs U937 cell line. The method in brief: as §1
In experiment [4] the test system is HCT 116 cell line. Nature of the experiment: Cell inhibition assay (SRB cell viability), HCT 116. It is filed as cell-based. The note with it: Homo sapiens, IC50 range class, 72 h, read-out: Inhibitor Activity vs HCT 116 cell line. In outline:
as §1

Experiment [5] has as its target T1, Aurora-A (Homo sapiens, UniProt O14965).
T1 sequence (O14965 1-403): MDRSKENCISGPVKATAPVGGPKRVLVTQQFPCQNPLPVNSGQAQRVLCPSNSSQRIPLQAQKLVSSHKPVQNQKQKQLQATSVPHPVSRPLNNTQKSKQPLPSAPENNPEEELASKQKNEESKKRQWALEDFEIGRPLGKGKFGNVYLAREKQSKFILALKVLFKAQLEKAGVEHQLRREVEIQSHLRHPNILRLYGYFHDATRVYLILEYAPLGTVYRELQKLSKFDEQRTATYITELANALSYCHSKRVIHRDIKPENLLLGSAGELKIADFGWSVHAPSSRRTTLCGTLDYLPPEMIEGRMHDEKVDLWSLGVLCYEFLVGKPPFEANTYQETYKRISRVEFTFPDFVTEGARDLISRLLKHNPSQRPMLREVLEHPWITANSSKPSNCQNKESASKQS
The experiment can be described thus: Aurora-A enzyme assay (MBP-coated Flashplate, γ-33P-ATP). It is filed as biochemical. Particulars: IC50 range class; read-out: Inhibitor Activity vs Aurora-A. How it is done: The ability of compounds to inhibit Aurora-A activity was measured using a simple microplate assay for Aurora-A activity, also suitable for high-throughput screening. In brief, γ-^33P-ATP and Aurora-A were incubated in a myelin basic protein (MBP)-coated Flashplate® to generate a scintillation signal. The plates were formatted to contain the inhibitor, controls, positive control (staurosporin) and blanks. After incubation at 37° C. for 1 hour and a subsequent wash procedure, the plates were read on a TopCount-NXT™.
The 384-well basic Flashplate® and the γ-^33P-ATP were obtained from PerkinElmer Life Sciences, Boston, Mass.
IC50 values were determined by non-linear regression analysis, after fitting the data point results to the equation for sigmoidal dose response with variable slope (% activity against log concentration of compound), using Graphpad Prism software.
Full experimental procedure for this assay can be found within the following reference: Sun, C Journal of Biomolecular Screening 9(5), 2004, 391.

Turning to `COc1cc2c(Oc3ccc(NC(=O)c4ccccc4)cc3)ccnc2cc1OCC[C@H](NC(=O)OC(C)(C)C)C(=O)OC1CCCC1` [Example 1, (S)-4-[4-(4-Benzoylamino-phenoxy)-6-methoxy-quinolin-7-yloxy]-2-tert-butoxycarbonylamino-butyric acid cyclopentyl ester], the IC50 is 1000 to 5000 nM in experiment [1]; > 5000 nM in experiment [2]; < 1000 nM in experiment [3]; < 1000 nM in experiment [4]; 2000 to 5000 nM in experiment [5].
As to `COc1cc2c(Oc3ccc(NC(=O)c4ccccc4)cc3)ccnc2cc1OCC[C@H](N)C(=O)OC1CCCC1` [Example 2, (S)-2-Amino-4-[4-(4-benzoylamino-phenoxy)-6-methoxy-quinolin-7-yloxy]-butyric acid cyclopentyl ester], the IC50 in experiment [1] was < 1000 nM; in experiment [2], 2000 to 5000 nM; in experiment [3], < 1000 nM; in experiment [4] it was < 1000 nM; in experiment [5] it was 2000 to 5000 nM.
As to `COc1cc2c(Nc3ccc(NC(=O)c4ccccc4)cc3)ccnc2cc1OCC[C@H](N)C(=O)OC1CCCC1` [Example 15, (S)-2-Amino-4-[4-(4-benzoylamino-phenylamino)-6-methoxy-quinolin-7-yloxy]-butyric acid cyclopentyl ester], the IC50 is 1000 to 5000 nM in experiment [1]; > 5000 nM in experiment [2]; 1000 to 5000 nM in experiment [3]; 1000 to 5000 nM in experiment [4]; 2000 to 5000 nM in experiment [5].
In the case of `COc1cc2c(Sc3ccc(NC(=O)c4ccccc4)cc3)ccnc2cc1OCC[C@H](N)C(=O)OC1CCCC1` [Example 18, (S)-2-Amino-4-[4-(4-benzoylamino-phenylsulfanyl)-6-methoxy-quinolin-7-yloxy]-butyric acid cyclopentyl ester], the IC50 was < 1000 nM in experiment [1]; > 5000 nM in experiment [2]; < 1000 nM in experiment [3]; < 1000 nM in experiment [4]; < 2000 nM in experiment [5].
`COc1cc2c(Oc3ccc(NC(=O)Nc4ccccc4)cc3)ccnc2cc1OCC[C@H](N)C(=O)O` [Example 96, (S)-2-Amino-4-{6-methoxy-4-[4-(3-phenyl-ureido)-phenoxy]-quinolin-7-yloxy}-butyric acid]: the IC50 in experiment [2] and in experiment [5] was < 2000 nM each time.
Turning to `COc1cc2c(Oc3ccc(NC(=O)c4ccccc4)cc3)ccnc2cc1OCC[C@@H](N)C(=O)O` [Example 100, (R)-2-Amino-4-[4-(4-benzoylamino-phenoxy)-6-methoxy-quinolin-7-yloxy]-butyric acid], the results for the IC50 in experiment [2] and in experiment [5] were < 2000 nM and 2000 to 5000 nM, respectively.
Take `COc1cc2c(Oc3ccc(NC(=O)Nc4ccccc4)cc3)ccnc2cc1OCC[C@@H](N)C(=O)O` [Example 102, (R)-2-Amino-4-{6-methoxy-4-[4-(3-phenyl-ureido)-phenoxy]-quinolin-7-yloxy}-butyric acid]: the IC50 in experiment [2] and in experiment [5] was < 2000 nM throughout.
In the case of `COc1cc2c(Oc3ccc(NC(=O)Nc4ccc(C(F)(F)F)cc4)cc3)ccnc2cc1OCC[C@@H](N)C(=O)O` [Example 105, (R)-2-Amino-4-(6-methoxy-4-{4-[3-(4-trifluoromethyl-phenyl)-ureido]-phenoxy}-quinolin-7-yloxy)-butyric acid], the IC50 in experiment [2] and in experiment [5] was < 2000 nM throughout.
As for `COc1cc2c(Oc3ccc(NC(=O)c4ccccc4)cc3)ccnc2cc1OCCC[C@H](N)C(=O)O` [Example 110, (S)-2-Amino-5-[4-(4-benzoylamino-phenoxy)-6-methoxy-quinolin-7-yloxy]-pentanoic acid], the IC50 in experiment [2] and in experiment [5] was < 2000 nM throughout.
Consider `COc1cc2c(Oc3ccc(NC(=O)Nc4ccccc4)cc3)ccnc2cc1OCCC[C@H](N)C(=O)O` [Example 112, (S)-2-Amino-5-{6-methoxy-4-[4-(3-phenyl-ureido)-phenoxy]-quinolin-7-yloxy}-pentanoic acid], for which the IC50 in experiment [2] and in experiment [5] was < 2000 nM in each case.
For the molecule `COc1cc2c(Oc3ccc(NC(=O)Nc4ccc(C(F)(F)F)cc4)cc3)ccnc2cc1OCCC[C@H](N)C(=O)O` [Example 114, (S)-2-Amino-5-(6-methoxy-4-{4-[3-(4-trifluoromethyl-phenyl)-ureido]-phenoxy}-quinolin-7-yloxy)-pentanoic acid], the IC50 in experiment [2] and in experiment [5] was < 2000 nM throughout.
Take `COc1cc2c(Oc3ccc(NC(=O)c4ccccc4)cc3)ccnc2cc1OCCC[C@@H](N)C(=O)O` [Example 116, (R)-2-Amino-5-[4-(4-benzoylamino-phenoxy)-6-methoxy-quinolin-7-yloxy]-pentanoic acid]: the IC50 in experiment [2] and in experiment [5] was < 2000 nM throughout.
Consider `COc1cc2c(Oc3ccc(NC(=O)Nc4ccccc4)cc3)ccnc2cc1OCCC[C@@H](N)C(=O)O` [Example 118, (R)-2-Amino-5-{6-methoxy-4-[4-(3-phenyl-ureido)-phenoxy]-quinolin-7-yloxy}-pentanoic acid], for which the IC50 in experiment [2] and in experiment [5] was < 2000 nM throughout.
As to `COc1cc2c(Oc3ccc(NC(=O)Nc4ccc(C(F)(F)F)cc4)cc3)ccnc2cc1OCCC[C@@H](N)C(=O)O` [Example 120, (R)-2-Amino-5-(6-methoxy-4-{4-[3-(4-trifluoromethyl-phenyl)-ureido]-phenoxy}-quinolin-7-yloxy)-pentanoic acid], the IC50 in experiment [2] and in experiment [5] was < 2000 nM throughout.
Turning to `COc1cc2c(Sc3ccc(NC(=O)Nc4ccc(C(F)(F)F)cc4)cc3)ccnc2cc1OCCC[C@@H](N)C(=O)O` [Example 122, (R)-2-Amino-5-(6-methoxy-4-{4-[3-(4-trifluoromethyl-phenyl)-ureido]-phenylsulfanyl}-quinolin-7-yloxy)-pentanoic acid], the IC50 in experiment [2] and in experiment [5] was < 2000 nM throughout.
Turning to `COc1cc2c(Oc3ccc(NC(=O)Nc4ccc(C(F)(F)F)cc4)cc3F)ccnc2cc1OCCC[C@@H](N)C(=O)O` [Example 124, (R)-2-Amino-5-(4-{2-fluoro-4-[3-(4-trifluoromethyl-phenyl)-ureido]-phenoxy}-6-methoxy-quinolin-7-yloxy)-pentanoic acid], the IC50 in experiment [2] and in experiment [5] was < 2000 nM throughout.
As to `COc1cc2c(Oc3ccc(NC(=O)Nc4ccc(C(F)(F)F)cc4)cc3F)ccnc2cc1OCC[C@H](N)C(=O)O` [Example 126, (S)-2-Amino-4-(4-{2-fluoro-4-[3-(4-trifluoromethyl-phenyl)-ureido]-phenoxy}-6-methoxy-quinolin-7-yloxy)-butyric acid], the IC50 in experiment [2] and in experiment [5] was < 2000 nM each time.
For the molecule `COc1cc2c(Oc3ccc(NC(=O)c4ccccc4)cc3F)ccnc2cc1OCC[C@H](N)C(=O)O` [Example 129, (S)-2-Amino-4-[4-(4-benzoylamino-2-fluoro-phenoxy)-6-methoxy-quinolin-7-yloxy]-butyric acid], the IC50 in experiment [2] and in experiment [5] was < 2000 nM throughout.
In the case of `COc1cc2c(Oc3ccc(NC(=O)c4ccccc4)c(F)c3)ccnc2cc1OCC[C@H](N)C(=O)O` [Example 131, (S)-2-Amino-4-[4-(4-benzoylamino-3-fluoro-phenoxy)-6-methoxy-quinolin-7-yloxy]-butyric acid], the IC50 is 2000 to 5000 nM in experiment [2] and > 5000 nM in experiment [5].
For `COc1cc2c(Oc3ccc(NC(=O)c4ccccc4)cc3OC)ccnc2cc1OCC[C@H](N)C(=O)O` [Example 133, (S)-2-Amino-4-[4-(4-benzoylamino-2-methoxy-phenoxy)-6-methoxy-quinolin-7-yloxy]-butyric acid], the IC50 in experiment [2] and in experiment [5] was 2000 to 5000 nM each time.
For `COc1cc2c(Oc3ccc(NCc4ccccc4)cc3)ccnc2cc1OCC[C@H](N)C(=O)O` [Example 139, (S)-2-Amino-4-[4-(4-benzylamino-phenoxy)-6-methoxy-quinolin-7-yloxy]-butyric acid], the IC50 in experiment [2] and in experiment [5] was 2000 to 5000 nM each time.
With `COc1cc2c(Oc3ccc(CNC(=O)c4ccccc4)cc3)ccnc2cc1OCC[C@H](N)C(=O)O` [Example 142, (S)-2-Amino-4-{4-[4-(benzoylamino-methyl)-phenoxy]-6-methoxy-quinolin-7-yloxy}-butyric acid], the IC50 was < 2000 nM in experiment [2] and 2000 to 5000 nM in experiment [5].
